Data published in patent publication US20260014278A1, “HYBRID PEPTIDE DENDRIMER SYSTEMS AND EXTRAHEPATIC DELIVERY” (NUNTIUS THERAPEUTICS LIMITED, priority 2022, published 2026).

Legend:
[1] = tested on: mouse macrophages; assay: eGFP mRNA transfection of mouse macrophages with or without mannose-dendrimer coat; assay type: cell-based
Method: J774.2 cells were subcultured in DMEM supplemented with 2 mM glutamax and 10% heat-inactivated FBS (complete media). Twice a week (at about 70-80% confluency; every 3-4 days), cells were scrapped and collected into Falcon tubes, and pelleted at 400 g for 5 minutes. The cells were resuspended in complete media, counted and seeded into 10 cm dishes at a density of 1.7-2.5E+4 cells/cm^2. For M2 polarisation, the cells were treated with complete media supplemented with 20 ng/ml recombinant murine IL-4 and 20 ng/ml recombinant murine IL-13 (activation media) over a 48 hr period. After 24 hrs in IL-4 and IL-13 containing medium, the cells scrapped and collected as described above. The cells were seeded into 24-well plates at a density of 1.2E+5 cells/well in 0.5mls/well complete media containing 20 ng/ml IL-4 and IL-13.
The media overlaying the polarised J774.2 cells was aspirated and exchanged with 480 ul/well activation media. 120 ul/well of each test condition (total volume was 600 ul/well) was added (test conditions were prepared in 25 mM HEPES solution). Control conditions were prepared consisting of neat 25 mM HEPES and an mRNA control. Between addition of each test condition the plate was shaken back and forth to ensure mixing. The plate was placed into the incubator overnight.
Staining and fixation for both human and mouse-derived macrophages was carried out as follows. After 24 hrs the media overlaying each test condition was transferred to corresponding 1.5 ml Eppendorf tubes (in order to conserve cells that may have died during transfection). Cells were then washed with 300 ul/well PBS which was transferred to the corresponding tubes. 500 ul/well 5 mM EDTA was added to each well and the plate(s) transferred to the 37° C. incubator for 5-10 minutes until the cells started to detach. Cells were then transferred from the plate to the corresponding 1.5 ml tubes. Cells were pelleted down at 300 g for 5 minutes and resuspended in 100 ul/sample fixable Live/Dead Aqua stain. ArC beads were stained with 3 ul neat Live/Dead Aqua for compensation. These cells were stained on ice for 30 minutes. Following this, the tubes were spun down at 300 g for 5 minutes. The supernatant was discarded, and the cells were resuspended in 500 ul/sample PBS. Negative ArC beads were added to the compensation control. GFP compensation beads were dispensed into separate tube as the GFP compensation control. The samples were spun down at 300 g for 5 minutes. Samples were then resuspended in 100 ul/sample of Reagent A from the Invitrogen Fix/Perm kit and left at room temperature for 15 minutes. The samples were spun down at 400 g for 5 minutes and the supernatant was disposed. The samples were once again washed with PBS and spun down at 300 g for 5 minutes. The cells were finally resuspended in 400 ul/sample FACS buffer (PBS+2 mM EDTA+0.5% w/v BSA) for flow analysis. Samples were stored in the fridge prior to flow analysis and run within 24 hrs of fixation.
12 μl of a nanoparticle formulation was aliquoted into a sterile 0.5 ml polypropylene tube. 4 μl of a 0.3 mg/ml, 0.6 mg/ml or 1.8 mg/ml solution of (Ac-EEEE)2[…][(S-S)-α-D-Thiomannose] (for a mRNA:coating mass ratio of 1:0.5, 1:1 or 1:3, respectively) was mixed by rapidly pipetting up and down 10-15 times, and allowed to incubate for 5 minutes.
Macrophages, and in particular M2-phenotype macrophages, are known to have enriched surface expression of the receptor CD206, the ligand for which is mannose.

[2] = Zeta potential of nanoparticles (electrophoretic light scattering); assay type: physicochemical
Excerpt: Zeta potential is a measurement of the magnitude of the electrostatic or charge repulsion/attraction between particles. This can be determined by analysing particle mobility and charge (Zeta potential) using the Electrophoretic Light Scattering (ELS) technique.
Zeta potential is a measurement of the magnitude of the electrostatic or charge repulsion/attraction between particles. This can be determined by analysing particle mobility and charge (Zeta potential) using the Electrophoretic Light Scattering (ELS) technique. […] Parameters: reference material: polystyrene latex, dispersant: water, 25° C. The measurements of the zeta potential were carried out using the Zetasizer Advance Series—Pro (Malvern Panalytical Ltd, Malvern, UK) according to the manufacturer's instructions.

- zeta potential ([2]; GSCG1,2-RHL N:P=0.6:1, DOTMA:DOPE, coated with GSGGSGGSCG1-EEEE, with/without CpG (mRNA:CpG w/w 9:1)): +48 mV
- Zeta potential measurement ([2]; GSCG1,2-RHL and DOTMA:DOPE nanoparticles, diluted 3× in 25 mM HEPES, then 60× in water): +33.5 mV
- zeta potential ([2]; mRNA, N:P 0.6:1, DOTMA:DOPE w/w 10:1, with or without 3 equivalents G1-EEEE with mannose coating): 28.23 mV
Substance: (RHL)4(KRHL)2KGSC-NH2 [GSCG1,2-RHL]
- transfection efficiency with mannose-conjugated dendrimer coat versus uncoated ([1]; NP=0.6:1, lipid:mRNA w/w 10:1, coat 3:1 (3 eq) coating:mRNA, FIG. 7): further increase the transfection efficiency
- transfection efficiency ([1]; NP=0.6:1, lipid:mRNA w/w 10:1, uncoated, FIG. 7): > 70%
- transfection rate ([1]; NP=8:1, DOTMA/DOPE:mRNA w/w 10:1, uncoated, FIG. 6): ~60%
- transfection efficiency ([1]; NP=8:1, lipid:mRNA w/w 2.5:1, coated with (Ac-EEEE)2KGSGGSGGSC[(S-S)-α-D-Thiomannose] at 1:1 (1 eq) coating:mRNA, FIG. 4): ~25%
- transfection efficiency ([1]; NP=8:1, lipid:mRNA w/w 2.5:1, uncoated, FIG. 4): 2-3%
- transfection efficiency ([1]; NP=8:1, lipid:mRNA w/w 5:1, dendrimer-mannose coat 0.5:1 (0.5 eq) coating:mRNA, FIG. 5): ~75%
- transfection efficiency ([1]; NP=8:1, lipid:mRNA w/w 5:1, uncoated, lipid-only nanoparticles as comparator, FIG. 5): ~60%
